Results reported in paper PMC7186840, “Chemical‐Shift Perturbations Reflect Bile Acid Binding to Norovirus Coat Protein: Recognition Comes in Different Flavors” (Chembiochem, 2019).

Experiments:
[1] = biological target: T1, GII.4 Saga P dimers (Norovirus Hu/GII-4/Saga4/2006/JP, UniProt B5BTR7); assay: 1H, […] TROSY HSQC CSP titration; type: binding
T1 construct: isotope-labelled, non-deamidated

[2] = biological target: T2, GII.4 Ast6139 VLPs (Norwalk virus, UniProt Q70ET2); assay: STD NMR titration, single saturation time […] s; type: binding
T2 construct: virus-like particles of VP1, arginine tail present; donated by F. Parra

[3] = biological target: T3, GII.4 Saga VLPs (Norovirus Hu/GII-4/Saga4/2006/JP, UniProt B5BTR7); assay: STD NMR titration, single saturation time […] s; type: binding
T3 construct: virus-like particles of VP1, arginine tail present; donated by G. Hansman

[4] = biological target: T4, GII.17 Kawasaki308 VLPs (Norovirus Hu/GII/JP/2015/GII.P17_GII.17/Kawasaki308, UniProt A0A0E4B1P1); assay: STD NMR titration, single saturation time […] s; type: binding
T4 construct: gene VP1; virus-like particles of VP1, arginine tail present; donated by G. Hansman

[5] = biological target: T5, GII.7 RKI VLPs (Norovirus Hu/GII.7/VLP 05G954/2005/DE, UniProt S5GGK6); assay: STD NMR titration, single saturation time […] s; type: binding
T5 construct: virus-like particles of VP1, arginine tail present; gift of S. Taube

[6] = biological target: T6, GII.17 Saitama/T87 VLPs (Norovirus GII/Hu/JP/2002/GII.P16_GII.17/Saitama/T87, UniProt A0A076JB57); assay: biochemical; design: STD NMR titration of norovirus VLPs with cholic acid, single saturation time 2 s; apparent KD from STD-AF
T6 construct: gene VP1; virus-like particles of VP1, arginine tail present; donated by G. Hansman
Experimental: Samples containing VLPs were prepared at 0.41 to 1 mg mL^−1 VP1 concentration (6.9 to 17.7 μM binding sites) in PBS pH 7.3, 100 μM [D6]DSS, 0.02 % NaN3 and 10 % D2O. […] Bile acid stock solution were prepared as described above for backbone chemical shift perturbation experiments. For N373D Saga P dimers, one sample containing 45 μM P dimers, 100 μM [D6]DSS in 20 mM fully deuterated sodium phosphate buffer (pH 7.45) was prepared and titrated with CA up to a final concentration of 12 mM. […] In one set of experiments we performed titrations at single saturation times of 2 s15 (cf. Figure S5 and Table S1). Another titration experiment made use of initial STD growth rates16 determined from STD build up curves (Figure S6 and Table S2). The initial growth rates were also used to derive a binding epitope for CA (Figures 2 and S3). The apparent K D values obtained are similar, with the value resulting from initial growth rates being slightly smaller, as expected.

[7] = biological target: T7, GII.10 Vietnam026 VLPs (Norwalk virus, UniProt Q5F4T5); assay: STD NMR titration, single saturation time […] s; type: binding
T7 construct: virus-like particles of VP1, arginine tail present; donated by G. Hansman

[8] = biological target: T8, GII.17 Kawasaki308 P dimers (Norovirus Hu/GII/JP/2015/GII.P17_GII.17/Kawasaki308, UniProt A0A0E4B1P1); assay: methyl TROSY CSP titration; type: binding
T8 construct: gene VP1; MIL(ProS)V(ProS)A methyl-labelled
Description: methyl TROSY CSP titration on GII.17 Kawasaki308 P dimers

[9] = biological target: T9, GII.4 MI001 P dimers (Norovirus Hu/GII.4/MI001/2011/USA, UniProt S5FWF8); assay: 1H, […] TROSY HSQC CSP titration; type: binding
T9 construct: [U-2H,15N]-labelled

[10] = biological target: T3, GII.4 Saga VLPs; assay: biochemical; design: STD NMR titration of norovirus VLPs with cholic acid; apparent KD from initial STD growth rates
Experimental: Samples containing VLPs were prepared at 0.41 to 1 mg mL^−1 VP1 concentration (6.9 to 17.7 μM binding sites) in PBS pH 7.3, 100 μM [D6]DSS, 0.02 % NaN3 and 10 % D2O. […] Bile acid stock solution were prepared as described above for backbone chemical shift perturbation experiments. For N373D Saga P dimers, one sample containing 45 μM P dimers, 100 μM [D6]DSS in 20 mM fully deuterated sodium phosphate buffer (pH 7.45) was prepared and titrated with CA up to a final concentration of 12 mM. with STD‐AFmax being the maximum STD‐AF for a given proton, k sat the saturation rate constant, and t sat the saturation time. Initial slopes STD‐AF0 were obtained from STD‐AF0=STD‐AFmax k sat, and were plotted as a function of the ligand concentration. Fitting Equation (1) to the resulting binding isotherms delivered dissociation constants K D. For curve fitting Origin2016G (OriginLab) was used. To compare P dimers to viral capsids, we also obtained STD NMR titration curves for CA binding to GII.4 Saga VLPs (Figure 3 D; Table 1, No. 5 and 6). In one set of experiments we performed titrations at single saturation times of 2 s15 (cf. Figure S5 and Table S1). Another titration experiment made use of initial STD growth rates16 determined from STD build up curves (Figure S6 and Table S2). The initial growth rates were also used to derive a binding epitope for CA (Figures 2 and S3). […]

[11] = biological target: T10, GI.1 Norwalk VLPs (Norovirus GI, UniProt A0A1S5QJB8); assay: STD NMR titration, single saturation time […] s; type: binding; settings: read-out: K D app; pH 7.3, 277 K, 10 % D2O; apparent, ligand aggregation
T10 construct: virus-like particles of VP1, arginine tail present; donated by G. Hansman

[12] = biological target: T1, GII.4 Saga P dimers; assay: 1H, […] TROSY HSQC CSP; type: binding; settings: 2 mM ligand, pH 7.3, 298 K; same site as CA
[13] = biological target: T3, GII.4 Saga VLPs; assay: STD NMR; type: binding; settings: pH 7.3, 277 K

C[C@H](CCC(=O)O)[C@H]1CC[C@H]2[C@@H]3[C@H](O)C[C@@H]4C[C@H](O)CC[C@]4(C)[C@H]3C[C@H](O)[C@]12C [CA, cholic acid]
Kd [1]: 10 ± 0.6 mM | Kd [2]: 26.5 ± 8 mM | Kd [3]: 4.7 ± 0.4 mM | Kd [4]: 31.5 ± 2.8 mM | Kd [5]: 10.9 ± 4.3 mM | Kd [6]: 6.6 ± 0.4 mM | Kd [7]: 12.9 ± 2.9 mM | Kd [8]: 20.1 ± 2.9 mM | Kd [9]: 11.1 ± 0.9 mM | Kd [10]: 3.6 ± 0.7 mM | Kd [11]: 12.2 ± 1.8 mM

C[C@H](CCC(=O)O)[C@H]1CC[C@H]2[C@@H]3[C@H](O)C[C@@H]4C[C@H](O)CC[C@]4(C)[C@H]3CC[C@]12C [CDCA, chenodeoxycholic acid]
1H,15N TROSY HSQC CSP [12]: Binding of DCA, GCDCA, and CDCA yields very similar CSPs reflecting binding to the same site

C[C@H](CCC(=O)O)[C@H]1CC[C@H]2[C@@H]3CC[C@@H]4C[C@H](O)CC[C@]4(C)[C@H]3C[C@H](O)[C@]12C [DCA, deoxycholic acid]
1H,15N TROSY HSQC CSP [12]: Binding of DCA, GCDCA, and CDCA yields very similar CSPs reflecting binding to the same site

C[C@H](CCC(=O)NCC(=O)O)[C@H]1CC[C@H]2[C@@H]3[C@H](O)C[C@@H]4C[C@H](O)CC[C@]4(C)[C@H]3C[C@H](O)[C@]12C [GCA, sodium glycocholate hydrate]
STD NMR ([13]; 1 mM ligand in presence of TCDCA (1 mM)): In each case STD NMR spectra indicate binding of bile acids to VLPs

C[C@H](CCC(=O)NCC(=O)O)[C@H]1CC[C@H]2[C@@H]3[C@H](O)C[C@@H]4C[C@H](O)CC[C@]4(C)[C@H]3CC[C@]12C [GCDCA, glycochenodeoxycholic acid]
Kd [1]: 1.5 ± 0.3 mM

CC1(C)[C@@H](O[C@H]2O[C@H](C(=O)O)[C@@H](O)[C@H](O)[C@H]2O[C@@H]2O[C@H](C(=O)O)[C@@H](O)[C@H](O)[C@H]2O)CC[C@]2(C)[C@H]3C(=O)C=C4[C@@H]5C[C@@](C)(C(=O)O)CC[C@]5(C)CC[C@@]4(C)[C@]3(C)CC[C@@H]12 [GR, glycyrrhizic acid]
Kd [1]: 13.8 ± 0.4 mM

C[C@H](CCC(=O)NCCS(=O)(=O)O)[C@H]1CC[C@H]2[C@@H]3[C@H](O)C[C@@H]4C[C@H](O)CC[C@]4(C)[C@H]3CC[C@]12C [TCDCA, sodium taurochenodeoxycholate]
STD NMR ([13]; 1 mM ligand in presence of GCA (1 mM)): In each case STD NMR spectra indicate binding of bile acids to VLPs
